The text below walks through data of paper PMC3692405, “Disease-associated mutations in CNGB3 promote cytotoxicity in photoreceptor-derived cells” (Molecular Vision, 2013).

Substitutions are numbered along the chain they refer to. Read-outs that look alike come from different tables or passages of the source.

Common to all, as to type: biochemical
Settings in all cases: in the presence of 0.1 µM CPT-cGMP

Assay [1] addresses T1, WT human CNGA3 plus WT CNGB3 heteromeric channels (Homo sapiens, UniProt Q16281+Q9NQW8).
T1 construct: expressed in transfected cells; host or cells: Xenopus laevis oocytes injected with cRNA transcribed from pGEMHE constructs
T1 sequence (Q16281 1-694): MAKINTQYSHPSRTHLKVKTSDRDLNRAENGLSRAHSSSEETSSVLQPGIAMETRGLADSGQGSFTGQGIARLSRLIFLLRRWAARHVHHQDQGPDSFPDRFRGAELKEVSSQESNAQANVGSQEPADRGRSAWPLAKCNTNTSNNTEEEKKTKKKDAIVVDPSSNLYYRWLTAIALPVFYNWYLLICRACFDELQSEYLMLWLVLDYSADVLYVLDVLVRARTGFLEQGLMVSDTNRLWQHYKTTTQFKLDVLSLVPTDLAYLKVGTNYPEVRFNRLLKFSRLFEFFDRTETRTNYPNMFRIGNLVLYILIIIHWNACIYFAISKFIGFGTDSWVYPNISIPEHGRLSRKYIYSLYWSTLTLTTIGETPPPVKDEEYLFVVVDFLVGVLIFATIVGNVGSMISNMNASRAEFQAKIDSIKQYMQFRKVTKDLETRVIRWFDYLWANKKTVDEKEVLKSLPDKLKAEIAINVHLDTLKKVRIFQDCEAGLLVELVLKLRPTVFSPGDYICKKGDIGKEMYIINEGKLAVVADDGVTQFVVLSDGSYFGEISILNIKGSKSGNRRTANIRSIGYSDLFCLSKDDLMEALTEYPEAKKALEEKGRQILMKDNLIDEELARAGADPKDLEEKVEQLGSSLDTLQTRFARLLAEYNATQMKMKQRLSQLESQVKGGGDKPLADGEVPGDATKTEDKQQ
T1 sequence (Q9NQW8 1-809): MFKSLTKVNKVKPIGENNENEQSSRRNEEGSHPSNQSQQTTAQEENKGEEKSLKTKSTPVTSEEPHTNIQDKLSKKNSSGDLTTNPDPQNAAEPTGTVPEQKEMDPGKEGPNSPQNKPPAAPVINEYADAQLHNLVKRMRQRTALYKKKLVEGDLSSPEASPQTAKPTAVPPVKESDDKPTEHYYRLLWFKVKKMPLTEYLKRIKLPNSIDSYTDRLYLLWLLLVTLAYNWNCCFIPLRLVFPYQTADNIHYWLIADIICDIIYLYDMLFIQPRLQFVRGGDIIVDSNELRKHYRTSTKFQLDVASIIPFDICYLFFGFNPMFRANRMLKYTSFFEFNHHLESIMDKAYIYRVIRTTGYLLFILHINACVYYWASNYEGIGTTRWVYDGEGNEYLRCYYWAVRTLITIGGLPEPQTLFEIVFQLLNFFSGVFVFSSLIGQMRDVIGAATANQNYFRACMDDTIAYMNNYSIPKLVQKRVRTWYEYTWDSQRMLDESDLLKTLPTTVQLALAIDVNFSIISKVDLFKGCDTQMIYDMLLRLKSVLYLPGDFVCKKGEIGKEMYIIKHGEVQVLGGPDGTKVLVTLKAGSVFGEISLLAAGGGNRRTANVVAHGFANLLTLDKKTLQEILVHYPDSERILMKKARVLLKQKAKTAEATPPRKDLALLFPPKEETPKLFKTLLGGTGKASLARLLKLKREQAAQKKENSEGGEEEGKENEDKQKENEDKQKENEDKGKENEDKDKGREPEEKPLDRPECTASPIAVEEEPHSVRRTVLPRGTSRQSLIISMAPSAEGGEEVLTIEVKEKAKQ
In words: Inside-out patch-clamp recording of channels expressed in Xenopus oocytes (WT heteromeric). On the procedure: (§1) For heterologous expression in Xenopus laevis oocytes, identical amounts of cDNA were linearized using SphI or NheI, and capped cRNA was transcribed in vitro using the T-7 RNA polymerase mMESSAGE mMACHINE® kit (Ambion, Austin, TX). cRNA concentrations and relative amounts were determined by denaturing gel electrophoresis and KODAK 1D image analysis software (Rochester, NY), as well as by spectrophotometry. […] Oocytes were incubated in ND96 (96 mM NaCl, 2 mM KCl, 1.8 mM CaCl2, 1 mM MgCl2, and 5 mM HEPES, pH 7.6, supplemented with 10 μg/ml gentamycin).
(§2) Two to seven days after microinjection of cRNA, patch-clamp experiments were performed using the inside-out configuration with an Axopatch 200B amplifier (Axon Instruments, Foster City, CA). Recordings were made at 20–23 °C. Data were acquired using Pulse software (HEKA Elektronik, Lambrecht, Germany). Current traces were elicited by voltage steps from a holding potential of 0 mV to +80 mV, then to −80 mV and back to 0 mV. Initial pipette resistances were 0.4–0.8 megaohms. Intracellular and extracellular solutions contained 130 mM NaCl, 0.2 mM EDTA, and 3 mM HEPES (pH 7.2). Intracellular solutions were exchanged using an RSC-160 rapid solution changer (Molecular Kinetics, Indianapolis, IN). Currents in the absence of cyclic nucleotides were subtracted. For channel activation by CPT-cGMP or CPT-cAMP, dose–response data were fitted with the Hill equation, I/Imax=([cNMP]^h/(K1/2^h + [cNMP]^h)), where I is the current amplitude at +80 mV, Imax is the maximum current elicited by saturating concentration of ligand, [cNMP] is the ligand concentration, K1/2 is the apparent ligand affinity, and h is the Hill slope. We measured sensitivity to block by L-cis-diltiazem (RBI, Natick, MA) applied to the intracellular face of the patch in the presence of 0.1 μM CPT-cGMP. Data were fit with a modified Hill equation in the form I blocker/I=(K1/2^h/(K1/2^h + [blocker]^h)). Data were analyzed using Igor (Wavemetrics, Lake Oswego, OR), SigmaPlot, and SigmaStat (Systat Software Inc., San Jose, CA). All values are reported as the mean±standard error of the mean of n experiments unless otherwise indicated. Statistical significance was determined using a Student t test or Mann–Whitney rank sum test, and a p value of <0.05 was considered significant.
(In general: Patch clamp records ionic current or voltage across a cell membrane.)

Assay [2] has as its target T2, CNGA3 plus CNGB3 T383fsX channels (Homo sapiens, UniProt Q16281).
T2 construct: expressed in transfected cells; host or cells: Xenopus laevis oocytes injected with cRNA transcribed from pGEMHE constructs
T2 sequence (Q16281 1-694): T1 sequence (Q16281 1-694)
The experiment in a line: Inside-out patch-clamp recording of channels expressed in Xenopus oocytes (CNGB3 T383fsX). On the procedure:
as §1, §2

The target of assay [3] is T3, CNGA3 plus CNGB3-F525N channels (Homo sapiens, UniProt Q16281+Q9NQW8, F525N).
T3 construct: expressed in transfected cells; host or cells: Xenopus laevis oocytes injected with cRNA transcribed from pGEMHE constructs
T3 sequence (Q16281 1-694): T1 sequence (Q16281 1-694)
T3 sequence (Q9NQW8 1-809 F525N): T1 sequence (Q9NQW8 1-809) with F525N
In words: Inside-out patch-clamp recording of channels expressed in Xenopus oocytes (CNGB3 F525N). On the procedure: as §1, §2

[4] abbreviates: Figure 6B, read-out: K1/2,L-cis-dilt., dose-response fit of Figure 6B.
[5] abbreviates: intracellular face, mean±SEM, n=5, read-out: apparent affinity for L-cis-diltiazem K1/2, L-cis-dilt. (channel block).

`COc1ccc([C@@H]2Sc3ccccc3N(CCN(C)C)C(=O)[C@@H]2OC(C)=O)cc1` [L-cis-diltiazem]: the “Hill slope h, block by L-cis-diltiazem, Figure 6B” value in assay [1] (Figure 6B) was determined as 0.5; in assay [2] (Figure 6B) it was 0.3; in assay [3] (Figure 6B), 0.7. The IC50 is 4.1 µM in assay [1] (setting [4]); 4.06 ± 1 µM in assay [1] (setting [5]); 135 µM in assay [2] (setting [4]); 77.9 ± 23.1 µM in assay [2] (intracellular face, mean±SEM, n=4, read-out: apparent affinity for L-cis-diltiazem K1/2, L-cis-dilt. (channel block)); 4.2 µM in assay [3] (setting [4]); 3.03 ± 0.75 µM in assay [3] (setting [5]).
